# Data published in US10280149B2, “Therapeutic compounds and uses thereof” (GENENTECH, INC., priority 2015, dated 2019).
# Molecular target: Full length KDM2B (Homo sapiens (Human), UniProt Q8NHM5)
# Assay: KDM2B TR-FRET assay for determining inhibitor IC50
# Assay type: biochemical
# Conditions: TR-FRET (HTRF), biotin-H3K36me2 peptide substrate, 2-OG 0.3 μM or 6 μM
# From the text: KDM2B TR-FRET Assay for Determining Inhibitor IC50
# The KDM2B TR-FRET Assay described above represents an additional embodiment of the invention.
# Chain of Full length KDM2B (Q8NHM5 whole entry): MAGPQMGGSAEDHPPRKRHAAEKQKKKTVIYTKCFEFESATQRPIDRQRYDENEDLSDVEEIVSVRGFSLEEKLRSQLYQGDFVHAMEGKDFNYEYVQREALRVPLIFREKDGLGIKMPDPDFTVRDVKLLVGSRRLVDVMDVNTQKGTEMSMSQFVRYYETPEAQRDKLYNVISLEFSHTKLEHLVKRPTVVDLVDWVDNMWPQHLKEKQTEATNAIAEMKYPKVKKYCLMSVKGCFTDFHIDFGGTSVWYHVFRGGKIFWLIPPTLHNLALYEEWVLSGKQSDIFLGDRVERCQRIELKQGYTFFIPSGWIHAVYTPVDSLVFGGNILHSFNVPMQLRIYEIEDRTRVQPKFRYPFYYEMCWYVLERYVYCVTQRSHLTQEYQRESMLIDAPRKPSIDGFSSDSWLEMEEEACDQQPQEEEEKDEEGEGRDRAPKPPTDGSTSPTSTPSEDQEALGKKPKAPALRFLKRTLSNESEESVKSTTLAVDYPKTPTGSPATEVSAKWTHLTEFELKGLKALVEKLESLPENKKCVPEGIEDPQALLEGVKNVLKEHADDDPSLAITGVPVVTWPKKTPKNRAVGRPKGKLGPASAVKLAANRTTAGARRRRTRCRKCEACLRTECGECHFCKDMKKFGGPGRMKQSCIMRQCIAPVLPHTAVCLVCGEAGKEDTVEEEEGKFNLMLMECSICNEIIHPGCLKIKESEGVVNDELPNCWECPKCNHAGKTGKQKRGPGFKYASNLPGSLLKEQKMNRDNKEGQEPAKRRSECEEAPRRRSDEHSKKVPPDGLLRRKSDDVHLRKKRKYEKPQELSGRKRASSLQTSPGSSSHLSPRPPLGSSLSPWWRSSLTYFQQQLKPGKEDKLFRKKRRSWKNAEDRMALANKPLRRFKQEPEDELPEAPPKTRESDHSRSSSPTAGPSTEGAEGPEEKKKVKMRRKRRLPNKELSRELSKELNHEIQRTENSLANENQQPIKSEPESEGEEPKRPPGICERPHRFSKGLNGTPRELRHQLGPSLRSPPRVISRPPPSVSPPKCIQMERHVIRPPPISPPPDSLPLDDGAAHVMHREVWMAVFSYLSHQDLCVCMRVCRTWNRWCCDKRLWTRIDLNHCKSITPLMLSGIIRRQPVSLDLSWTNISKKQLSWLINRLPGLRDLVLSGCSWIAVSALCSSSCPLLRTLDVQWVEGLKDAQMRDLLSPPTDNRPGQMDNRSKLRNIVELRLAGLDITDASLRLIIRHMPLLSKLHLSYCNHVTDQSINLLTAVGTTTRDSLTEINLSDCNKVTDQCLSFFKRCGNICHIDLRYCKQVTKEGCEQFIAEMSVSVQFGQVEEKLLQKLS
row,SMILES,IC50 [µM]
1,"CCC1CCN(C2CC2)CC1C(=O)c1ccc2cc(OC)ccc2c1 (single isomer, unassigned) [Example 147b, (1-cyclopropyl-4-ethylpiperidin-3-yl)(6-methoxynaphthalen-2-yl)methanone]",0.0049
2,"CC1CCN(CC2CC2)CC1C(=O)c1ccc2c(O)cccc2c1 (single isomer, unassigned) [Example 151a, (1-(cyclopropylmethyl)-4-methylpiperidin-3-yl)(5-hydroxynaphthalen-2-yl)methanone]",0.315
3,"CC1CCN(CC2CC2)CC1C(=O)c1ccc2c(O)cccc2c1 (single isomer, unassigned) [Example 151b, (1-(cyclopropylmethyl)-4-methylpiperidin-3-yl)(5-hydroxynaphthalen-2-yl)methanone]",0.0395
4,"COc1cccc(C(=O)[C@@H]2CCCN(CC3CC3)C2)c1 (stereo in doubt) [Example 109a, (1-(cyclopropylmethyl)piperidin-3-yl)(3-methoxyphenyl)methanone]",14.1
5,"COc1cccc(C(=O)[C@H]2CCCN(CC3CC3)C2)c1 (stereo in doubt) [Example 109b, (1-(cyclopropylmethyl)piperidin-3-yl)(3-methoxyphenyl)methanone]",1.3
6,"COc1ccc(C(=O)[C@@H]2CCCN(CC3CC3)C2)cc1 (stereo in doubt) [Example 110b, (1-(cyclopropylmethyl)piperidin-3-yl)(4-methoxyphenyl)methanone]",5.3
7,"COc1ccccc1C(=O)[C@@H]1CCCN(CC2CC2)C1 (stereo in doubt) [Example 111, (1-(cyclopropylmethyl)piperidin-3-yl)(2-methoxyphenyl)methanone]",3.1
8,"O=C(c1ccc(Cl)cc1)[C@@H]1CCCN(CC2CC2)C1 (stereo in doubt) [Example 116a, (4-chlorophenyl)(1-(cyclopropylmethyl)piperidin-3-yl)methanone]",5.8
9,"O=C(c1ccc(Cl)cc1)[C@H]1CCCN(CC2CC2)C1 (stereo in doubt) [Example 116b, (4-chlorophenyl)(1-(cyclopropylmethyl)piperidin-3-yl)methanone]",1.4
10,"O=C(c1ccc2ccccc2n1)[C@@H]1CCCN(CC2CC2)C1 (stereo in doubt) [Example 117b, (1-(cyclopropylmethyl)piperidin-3-yl)(quinolin-2-yl)methanone]",0.75
11,"O=C(c1cccc(Cl)c1)[C@@H]1CCCN(CC2CC2)C1 (stereo in doubt) [Example 118a, (3-chlorophenyl)(1-(cyclopropylmethyl)piperidin-3-yl)methanone]",6.8
12,"O=C(c1cccc(Cl)c1)[C@H]1CCCN(CC2CC2)C1 (stereo in doubt) [Example 118b, (3-chlorophenyl)(1-(cyclopropylmethyl)piperidin-3-yl)methanone]",0.661
13,COc1ccc2cc(C(=O)[C@@]3(F)CCCN(CC4CC4)C3)ccc2c1 (stereo in doubt) [Example 157],6.1
14,"COc1ccc2cc(C(=O)[C@@]3(O)CCCN(CC4CC4)C3)ccc2c1 (stereo in doubt) [Example 158a, (1-(cyclopropylmethyl)-3-hydroxypiperidin-3-yl)(6-methoxynaphthalen-2-yl)methanone]",1.9
15,"COc1ccc2cc(C(=O)[C@]3(O)CCCN(CC4CC4)C3)ccc2c1 (stereo in doubt) [Example 158b, (1-(cyclopropylmethyl)-3-hydroxypiperidin-3-yl)(6-methoxynaphthalen-2-yl)methanone]",11.5
16,"C[C@H]1CCN(CC2CC2)C[C@@H]1C(=O)c1ccc2cc(C#N)ccc2c1 (stereo in doubt) [Example 160a, 6-(1-(cyclopropylmethyl)-4-methylpiperidine-3-carbonyl)-2-naphthonitrile]",1.7
17,"C[C@@H]1CCN(CC2CC2)C[C@H]1C(=O)c1ccc2cc(C#N)ccc2c1 (stereo in doubt) [Example 160b, 6-(1-(cyclopropylmethyl)-4-methylpiperidine-3-carbonyl)-2-naphthonitrile]",0.113
18,"C[C@H]1CCN(C2CCC2)C[C@@H]1C(=O)c1ccc2cc(C#N)ccc2c1 (stereo in doubt) [Example 161a, 6-(1-cyclobutyl-4-methylpiperidine-3-carbonyl)-2-naphthonitrile]",3
19,"C[C@@H]1CCN(C2CCC2)C[C@H]1C(=O)c1ccc2cc(C#N)ccc2c1 (stereo in doubt) [Example 161b, 6-(1-cyclobutyl-4-methylpiperidine-3-carbonyl)-2-naphthonitrile]",0.0123

row,SMILES,IC50 [µM]
1,"C[C@@H]1CCN(C2CCCC2)C[C@H]1C(=O)c1ccc2cc(C#N)ccc2c1 (stereo in doubt) [Example 162b, 6-(1-cyclopentyl-4-methylpiperidine-3-carbonyl)-2-naphthonitrile]",0.0857
2,"CCCN1CC[C@H](C)[C@@H](C(=O)c2ccc3cc(C#N)ccc3c2)C1 (stereo in doubt) [Example 163a, 6-(4-methyl-1-propylpiperidine-3-carbonyl)-2-naphthonitrile]",0.993
3,"CCCN1CC[C@@H](C)[C@H](C(=O)c2ccc3cc(C#N)ccc3c2)C1 (stereo in doubt) [Example 163b, 6-(4-methyl-1-propylpiperidine-3-carbonyl)-2-naphthonitrile]",0.0454
4,"COc1ccc2cc(C(=O)[C@H]3CCCN(C4CCC4)C3)ccc2c1CC#N (stereo in doubt) [Example 179a, 2-(6-(1-cyclobutylpiperidine-3-carbonyl)-2-methoxynaphthalen-1-yl)acetonitrile]",0.00565
5,"COc1ccc2cc(C(=O)[C@@H]3CCCN(C4CCC4)C3)ccc2c1CC#N (stereo in doubt) [Example 179b, 2-(6-(1-cyclobutylpiperidine-3-carbonyl)-2-methoxynaphthalen-1-yl)acetonitrile]",0.361
6,"CCCN1CC[C@@H](C)[C@@H](C(=O)c2ccc3c(CC#N)c(OC)ccc3c2)C1 (stereo in doubt) [Example 181a, 2-(2-methoxy-6-(4-methyl-1-propylpiperidine-3-carbonyl)naphthalen-1-yl)acetonitrile]",1.3
7,"CCCN1CC[C@H](C)[C@H](C(=O)c2ccc3c(CC#N)c(OC)ccc3c2)C1 (stereo in doubt) [Example 181b, 2-(2-methoxy-6-(4-methyl-1-propylpiperidine-3-carbonyl)naphthalen-1-yl)acetonitrile]",0.0123
8,"COc1ccc2cc(C(=O)[C@H]3CN(C4CCC4)CC[C@H]3C)ccc2c1CC#N (stereo in doubt) [Example 182a, 2-(6-(1-cyclobutyl-4-methylpiperidine-3-carbonyl)-2-methoxynaphthalen-1-yl)acetonitrile]",0.29
9,"COc1ccc2cc(C(=O)[C@@H]3CN(C4CCC4)CC[C@@H]3C)ccc2c1CC#N (stereo in doubt) [Example 182b, 2-(6-(1-cyclobutyl-4-methylpiperidine-3-carbonyl)-2-methoxynaphthalen-1-yl)acetonitrile]",0.00112
10,"CC[C@@H]1CCN(C2CCC2)C[C@H]1C(=O)c1ccc2c(CC#N)c(OC)ccc2c1 (stereo in doubt) [Example 183a, 2-(6-(1-cyclobutyl-4-ethylpiperidine-3-carbonyl)-2-methoxynaphthalen-1-yl)acetonitrile]",0.0552
11,"CC[C@H]1CCN(C2CCC2)C[C@@H]1C(=O)c1ccc2c(CC#N)c(OC)ccc2c1 (stereo in doubt) [Example 183b, 2-(6-(1-cyclobutyl-4-ethylpiperidine-3-carbonyl)-2-methoxynaphthalen-1-yl)acetonitrile]",0.00206
12,"CC[C@@H]1CCN(C2CCC2)C[C@@H]1C(=O)c1ccc2c(CC#N)c(OC)ccc2c1 (stereo in doubt) [Example 183c, 2-(6-(1-cyclobutyl-4-ethylpiperidine-3-carbonyl)-2-methoxynaphthalen-1-yl)acetonitrile]",0.078
13,"CC[C@H]1CCN(C2CCC2)C[C@H]1C(=O)c1ccc2c(CC#N)c(OC)ccc2c1 (stereo in doubt) [Example 183d, 2-(6-(1-cyclobutyl-4-ethylpiperidine-3-carbonyl)-2-methoxynaphthalen-1-yl)acetonitrile]",0.00153
14,"CCC[C@@H]1CCN(C2CCC2)C[C@@H]1C(=O)c1ccc2c(CC#N)c(OC)ccc2c1 (stereo in doubt) [Example 184a, 2-(6-(1-cyclobutyl-4-propylpiperidine-3-carbonyl)-2-methoxynaphthalen-1-yl)acetonitrile]",0.0774
15,"CCC[C@H]1CCN(C2CCC2)C[C@H]1C(=O)c1ccc2c(CC#N)c(OC)ccc2c1 (stereo in doubt) [Example 184b, 2-(6-(1-cyclobutyl-4-propylpiperidine-3-carbonyl)-2-methoxynaphthalen-1-yl)acetonitrile]",0.00141
16,"CCC[C@@H]1CCN(C2CCC2)C[C@H]1C(=O)c1ccc2c(CC#N)c(OC)ccc2c1 (stereo in doubt) [Example 184c, 2-(6-(1-cyclobutyl-4-propylpiperidine-3-carbonyl)-2-methoxynaphthalen-1-yl)acetonitrile]",0.00313
17,"CCC[C@H]1CCN(C2CCC2)C[C@@H]1C(=O)c1ccc2c(CC#N)c(OC)ccc2c1 (stereo in doubt) [Example 184d, 2-(6-(1-cyclobutyl-4-propylpiperidine-3-carbonyl)-2-methoxynaphthalen-1-yl)acetonitrile]",0.263
18,"COc1ccc2cc(C(=O)[C@@H]3CN(C4CCC4)CC[C@@H]3CC(C)C)ccc2c1CC#N (stereo in doubt) [Example 185a, 2-(6-(1-cyclobutyl-4-isobutylpiperidine-3-carbonyl)-2-methoxynaphthalen-1-yl)acetonitrile]",0.0535
19,"COc1ccc2cc(C(=O)[C@H]3CN(C4CCC4)CC[C@H]3CC(C)C)ccc2c1CC#N (stereo in doubt) [Example 185b, 2-(6-(1-cyclobutyl-4-isobutylpiperidine-3-carbonyl)-2-methoxynaphthalen-1-yl)acetonitrile]",0.002
